For one compound, Kd results are on record in article PMC11580889 (bioRxiv, 2025).

The assay has as its target PNKP (polynucleotide kinase 3'-phosphatase); purified recombinant PNKP (Homo sapiens, UniProt Q96T60). Description: intrinsic tryptophan fluorescence quenching titration. It counts as binding.

Take `O=P(O)(O)OC[C@H]1O[C@@](CO)(OP(=O)(O)O)[C@@H](O)[C@@H]1O` [F2,6BP]: the equilibrium dissociation constant (Kd) stood at 525 ± 25 nM.
